According to article PMC5937893, “Heat-stable sublingual oxytocin tablets as a potential needle-free approach for preventing postpartum hemorrhage in low-resource settings” (Drug Delivery and Translational Research, 2018):

Key:
in vivo = conditions: female, Yucatan miniature swine, pig, im, 20 IU
Method: (§1) Next, a crossover pharmacokinetic study with 24-h washout was conducted to determine oxytocin plasma levels after SL administration and to compare with the standard IM route in female mini pigs, chosen due to the similarity in oral cavity architecture with humans. Ten anesthetized female, non-pregnant Yucatan miniature swine, Sus scrofa 3 to 5 months old and weighing 15 to 20 kg were administered an oxytocin FDT under the tongue. For the control, mini pigs received 20 IU of oxytocin in a 1 mL IM injection into the right hind limb. […] Blood was collected from both groups at several time points up to 60 min after administration, via previously implanted vascular access ports, and plasma was obtained for analysis. A commercial enzyme-linked immunosorbent assay kit was used to detect oxytocin in the plasma.
(§2) The pharmacokinetic data were derived from ten non-pregnant female Yucatan miniature swine, Sus scrofa, aged 3
(§3) to 5 months, weighing 15 to 20 kg (Sinclair Bio-Resources, LLC, Auxvasse, MO, USA). Ten experimental pigs
(§4) received a sublingual (SL) tablet with 400 IU of oxytocin, and ten received SL tablets with 600 IU oxytocin. Ten
(§5) control pigs received 20 IU of oxytocin in a 1 mL intramuscular (IM) injection.
(§6) Animals were anesthetized with dexmedetomidine (0.04 mg/kg) mixed with midazolam (0.2 mg/kg), and anesthesia […]

Saliva stability study = assay type: in vitro ADME; conditions: pooled human saliva, 37 °C, 1 hour, HPLC, content at 1 hour divided by content at time zero, two aliquots per time point
Method: Since the oxytocin FDTs are intended to be administered under the tongue, we confirmed the stability of oxytocin in saliva prior to initiation of the pharmacokinetic study. The FDTs were incubated in pooled human saliva maintained at 37 °C for an hour along with unformulated oxytocin as a control. […]
the resting TEER measurement from the final TEER measurement. A reduction in the TEER indicates increased permeability of oral tissue after treatment.
Disintegration testing: Non-sink method
50, 60, 90 seconds) for complete disintegration. […]
aliquoted into four different vials. […]
immediately. […] The other two
HPLC mobile phase liquid and centrifuged immediately. The supernatants were loaded for HPLC analysis at the […]
1-hour divided by the content at time zero.
Test material Route of administration (IU/animal) Dose administered
Formulation 4 Sublingual 600 1 tablet
Formulation 4 Sublingual 400 1 tablet
Control Intramuscular 20 1 mL of 20 IU/mL
The FDTs were administered […]
once on days 1, 3, 8, 15, and 18. […]
aid in dissolution of the tablet. […]
right hind limb (biceps femoris) once on day 22.

[1] = in vivo
Method: as §1, §2, §3, §4, §5, §6

[2] = design: method as in earlier work; conditions: women, buccal route, levels greater than 1000 IU, induction of labor; ref [10]; cited from earlier work

Cmax (in vivo): 0.612 ng/mL | Proteolytic degradation of oxytocin in saliva (Saliva stability study): none to minimal proteolytic degradation | Plasma levels of oxytocin in unanesthetized versus anesthetized pigs [1]: significantly higher
Compound: CC[C@H](C)[C@@H]1NC(=O)[C@H](Cc2ccc(O)cc2)NC(=O)[C@@H](N)CSSC[C@@H](C(=O)N2CCC[C@H]2C(=O)N[C@@H](CC(C)C)C(=O)NCC(N)=O)NC(=O)[C@H](CC(N)=O)NC(=O)[C@H](CCC(N)=O)NC1=O [oxytocin]
Adverse events [2]: without any adverse events
